Results taken from US5045566A, “Novel imidate insecticides” (ICI Americas Inc., priority 1989, dated 1991).

Columns and labels:
Assay type in all cases: in vivo
[1] = system: Tobacco Budworm [Heliothis virescens (Fabricius)] eggs; test: Tobacco budworm eggs (TBW-E); conditions: percent in solution; 2-day old eggs
Procedure, shortened: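 Paper towel patches bearing 2-day old eggs were dipped in acetone solutions of compound, then set in petri dishes over larval rearing medium at 78° F. Mortality was scored once all control eggs had hatched and larvae were feeding. LC50, from dosage-mortality curves, is given as percent compound in solution.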

[2] = system: Cabbage Looper [Trichoplusia ni (Hubner)]; test: Cabbage looper leaf dip (CL), 3-5 days; conditions: percent in solution, second-instar larvae
Procedure, shortened: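 Compounds in 50-50 acetone-water were applied by dipping squash cotyledons (about 1×1.5 in) for 2-3 s; dried leaves went into petri dishes on moist filter paper with 5 second-instar larvae under high humidity. Mortality was scored after 3-5 days; LC50 from dosage-mortality curves, as percent compound in solution.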

[3] = system: Maize weevil [Sitophilus zeamais (Motschulsky)]; test: Maize weevil on dipped corn seeds (MW), 48 hours; conditions: percent in solution, adult weevils
Procedure, shortened: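 LC50, given as percent of compound in dipping solution, comes from dosage-mortality curves over concentrations descending from 0.01%. Four corn seeds soaked 2-3 s in 50:50 acetone:water solution were dried and held with 10 adult weevils, about 25° C, mortality read after 48 h.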

[4] = system: Housefly [Musca domestica]; test: Housefly contact mortality in dishes (HF), 48 hours; conditions: μg of test compound per 25 female flies
Procedure, shortened: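 Acetone solutions (with 0.01% peanut oil) dried onto dish bottoms, then 25 female flies, 1-2 days old, caged over the residue with sugar water. Mortality scored at 48 hours; LC50 from dosage-mortality curves, in μg per 25 female flies, top level 100 μg.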

[5] = system: Black Bean Aphid [Aphis fabae (Scop.)]; test: Black bean aphid spray test on nasturtium (BBA), 48 hours; conditions: percent of test compound in sprayed solution
Procedure, shortened: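 LC50, given as percent test compound in the sprayed liquid, was calculated from dosage-mortality curves using concentrations from 0.05% downward. Sprays in 50:50 acetone-water went to runoff on ~5 cm nasturtiums carrying 25-50 aphids of mixed ages, one day after infestation. Deaths were counted 48 h later under greenhouse conditions.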

[6] = system: Rice water weevil [Lissorhoptrus oryzophilus (Kuschel)]; test: Rice water weevil topical (RWW), 48 hours; conditions: μg of test compound per weevil, female adults
Experimental: The compounds in Tables 1 and 2 above were tested for insecticidal activity using the following testing procedures. LC50 values, based on the results of these tests and calculated according to dosage-mortality curves, are expressed in Table 3.
Rice water weevil [Lissorhoptrus oryzophilus (Kuschel)]:
Test compounds were diluted in acetone. Droplets (1 ul) of test solutions were applied to the ventral abdomens of ten female adult weevils. The treated weevils were placed in containers with wet cotton balls and rice foliage. The containers were covered and kept at a temperature of about 25° C. Mortality was recorded after 48 hours. Test concentrations ranged from […] down to that at which 50% mortality occurred. The LC50 values are expressed below in Table 3 under the heading "RWW" in terms of μg of test compound per weevil.

[7] = system: Aster Leafhopper [Macrosteles fascifrens (Stal)]; test: Aster leafhopper on dipped oat seedlings (LH), 48 hours; conditions: percent in solution, adults/nymphs
Procedure, shortened: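 Three ~10 cm oat seedlings per cup were dipped 2-3 seconds in 50-50 acetone-water compound solutions, dried, and caged with ten adult/nymph leafhoppers. Mortality was counted after 48 hours at concentrations from 0.05% downward. LC50, as percent compound in solution, came from dosage-mortality curves.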

[8] = system: Tobacco Budworm [Heliothis virescens (Fabricius)] larvae; test: Tobacco budworm larvae, contact (TBW-C), 5 days; conditions: percent in solution, second-instar larvae
Procedure, shortened: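 Cotton cotyledons dipped 2–3 s in compound in 50-50 acetone-water, dried, then infested with 5 second-instar larvae and held 5 days at high humidity. Mortality scored; LC50 from dosage-mortality curves, expressed as percent compound in solution, concentrations from 0.1% downward.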

| Compound | LC50 TBW E (eggs) [1] [%] | LC50 CL [2] [%] | LC50 MW [3] [%] | LC50 HF [4] [µg] | LC50 BBA [5] [%] | LC50 RWW [6] [µg] | LC50 LH [7] [%] | LC50 TBW C (contact) [8] [%] |
| --- | --- | --- | --- | --- | --- | --- | --- | --- |
| CC(C)C(=Nc1ccc(C(F)(F)F)cc1)OCc1cccc(Oc2ccccc2)c1 [Compound 68] | 0.009 | 0.006 | > 0.01 | 37 | 0.0003 | 0.15 | 0.0001 |  |
| CCC(=Nc1ccc(F)c(Cl)c1)OCc1cccc(Oc2ccccc2)c1 [Compound 85] | > 0.1 | 0.004 | > 0.01 | 7 | 0.0017 | > 2.5 | 0.003 |  |
| CC(C)C(=Nc1ccc(F)c(Cl)c1)OCc1cccc(Oc2cccc(F)c2)c1 [Compound 125] | 0.025 | 0.0007 | > 0.01 | 12 | 0.05 | > 2.5 | > 0.05 |  |
| CC(C)C(=Nc1ccc(F)c(Cl)c1)OCc1cccc(Oc2ccc(F)cc2F)c1 [Compound 191] | 0.04 | 0.00023 | 0.004 | 29 | 0.001 | > 2.5 | > 0.05 |  |
| CC(C)C(=Nc1c(F)c(F)c(F)c(F)c1F)OCc1cccc(Oc2ccc(F)cc2)c1 [Compound 198] | > 0.1 | 0.0005 | 0.003 | 52 |  | > 2.5 | 0.05 |  |
| CC(C)C(=Nc1ccc(Cl)c(Cl)c1)OCc1ccc(F)c(Oc2ccc(F)cc2)c1 [Compound 289] | 0.006 | 0.00007 | > 0.01 | 10 | 0.0003 | 0.082 | 0.0003 |  |
| CC(C)C(=Nc1ccc(F)c(F)c1)OCc1ccc(F)c(Oc2ccc(Cl)cc2)c1 [Compound 295] | 0.01 | 0.00004 | 0.0053 | 7.8 | 0.0003 | > 2.5 | 0.0001 | 0.0005 |
| CC(C)C(=Nc1ccc(Cl)c(Cl)c1)OCc1ccc(F)c(Oc2ccc(Cl)cc2)c1 [Compound 296] | 0.025 | 0.00025 |  | 38 | 0.0003 | 0.14 | 0.0003 | 0.00045 |
| CC(C)C(=Nc1ccc(F)c(Br)c1)OCc1ccc(F)c(Oc2ccc(Cl)cc2)c1 [Compound 298] | 0.015 | 0.0001 | 0.008 | 13 |  | > 2.5 | 0.0001 | 0.0008 |
| CC(C)C(=Nc1ccc(F)c(C(F)(F)F)c1)OCc1ccc(F)c(Oc2ccccc2)c1 [Compound 300] | 0.024 | 0.0003 | 0.01 | 14 | 0.0003 | 0.075 | 0.00002 | 0.001 |
| CC(C)C(=Nc1ccc(F)c(Cl)c1F)OCc1ccc(F)c(Oc2ccc(F)cc2)c1 [Compound 330] | 0.037 | 0.00012 | 0.001 | 5 | 0.0001 | 0.06 | < 0.05 | 0.00035 |
| CC(C)C(=Nc1ccc(OC(F)(F)F)cc1)OCc1ccc(F)c(Oc2ccccc2)c1 [Compound 338] | 0.01 | 0.000065 | 0.0053 | 26 | 0.0003 | 0.044 |  | 0.00037 |
| CC(C)C(=Nc1cccc(Br)c1)OCc1ccc(F)c(Oc2ccccc2)c1 [Compound 387] | 0.05 | 0.0012 | > 0.01 | < 100 | 0.0006 | > 2.5 |  |  |
| CC(C)C(=Nc1ccc(Cl)cc1)OCc1ccc(F)c(Oc2ccc(Cl)cc2)c1 [Compound 391] | 0.035 | 0.00029 | > 0.01 | < 100 | 0.0006 | > 2.5 |  |  |
| C=C(C)C(=Nc1ccc(C(F)(F)F)cc1)OCc1ccc(F)c(Oc2ccccc2)c1 [Compound 431] | 0.025 | 0.00017 | 0.0037 | 9.8 | 0.0003 | 0.084 |  |  |
| CC(C)C(=Nc1ccc(C(F)(F)F)c(Br)c1)OCc1ccc(F)c(Oc2ccc(Cl)cc2)c1 [Compound 433] | 0.02 | 0.00017 | 0.005 | < 100 | 0.0003 | 0.078 |  |  |
| CC(C)C(=Nc1ccc(F)c(Cl)c1F)OCc1ccc(F)c(Oc2ccccc2)c1 [Compound 451] | > 0.1 | 0.0001 | 0.0051 | 3.6 | 0.001 | 0.065 | 0.0002 | 0.00025 |
| CC(C)C(=Nc1ccc(Cl)c(OCC(F)(F)F)c1)OCc1ccc(F)c(Oc2ccc(Cl)cc2)c1 [Compound 452] | < 0.1 | 0.0017 | > 0.01 | > 100 | 0.0003 | 0.1 |  |  |
